The values below come from patent US9670247B2, “Contraceptive agents” (The University of Kansas, priority 2012, dated 2017).

Structures are written as SMILES.

In the first data set the target is hERG (Homo sapiens, UniProt Q12809).
hERG, sequence (Q12809 whole entry): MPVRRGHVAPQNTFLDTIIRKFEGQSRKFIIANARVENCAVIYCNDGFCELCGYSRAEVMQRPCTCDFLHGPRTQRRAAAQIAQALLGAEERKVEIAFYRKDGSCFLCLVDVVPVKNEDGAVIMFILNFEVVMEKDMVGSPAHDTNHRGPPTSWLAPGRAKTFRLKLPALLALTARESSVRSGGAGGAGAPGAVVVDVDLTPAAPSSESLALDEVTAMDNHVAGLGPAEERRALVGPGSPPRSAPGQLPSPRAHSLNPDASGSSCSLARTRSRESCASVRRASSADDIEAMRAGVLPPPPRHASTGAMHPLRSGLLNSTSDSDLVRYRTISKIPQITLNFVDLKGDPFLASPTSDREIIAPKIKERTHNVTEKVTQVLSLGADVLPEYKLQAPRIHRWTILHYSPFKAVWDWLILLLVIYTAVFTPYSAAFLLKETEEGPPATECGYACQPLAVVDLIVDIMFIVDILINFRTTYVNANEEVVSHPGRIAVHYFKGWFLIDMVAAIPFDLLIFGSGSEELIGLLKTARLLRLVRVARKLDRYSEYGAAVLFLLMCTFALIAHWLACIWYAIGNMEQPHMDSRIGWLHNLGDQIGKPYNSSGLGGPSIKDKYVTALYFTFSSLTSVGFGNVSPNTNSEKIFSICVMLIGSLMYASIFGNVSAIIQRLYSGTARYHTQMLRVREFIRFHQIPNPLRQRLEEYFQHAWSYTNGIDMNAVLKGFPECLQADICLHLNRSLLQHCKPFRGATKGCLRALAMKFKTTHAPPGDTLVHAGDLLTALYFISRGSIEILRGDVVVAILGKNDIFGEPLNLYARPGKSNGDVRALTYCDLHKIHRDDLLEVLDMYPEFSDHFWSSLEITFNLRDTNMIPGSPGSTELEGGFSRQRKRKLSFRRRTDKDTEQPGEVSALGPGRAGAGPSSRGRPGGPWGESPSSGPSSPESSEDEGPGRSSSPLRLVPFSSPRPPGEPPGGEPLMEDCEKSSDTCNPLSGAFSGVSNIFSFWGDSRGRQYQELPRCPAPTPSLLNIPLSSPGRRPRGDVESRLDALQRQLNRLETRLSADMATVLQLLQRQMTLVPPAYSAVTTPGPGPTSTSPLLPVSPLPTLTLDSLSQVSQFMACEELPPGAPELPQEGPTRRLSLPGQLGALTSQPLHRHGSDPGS
Conditions: not given
As to `C[C@@H]1O[C@@H](O[C@H]2C[C@@H](O)[C@]3(CO)[C@H]4[C@H](O)C[C@]5(C)[C@@H](C6=CC(=O)OC6)CC[C@]5(O)[C@@H]4CC[C@]3(O)C2)[C@H](O)[C@H](O)[C@H]1O` [ouabain], the “effect on hERG” value is “inhibited hERG activity”.

Tested on in another data set: not given
Conditions: not given
The term melting point denotes the temperature, or range, at which the solid turns liquid. `C[C@]12CCC3C(CC=C4C[C@@H](O)CC[C@@]43C)[C@@H]1CC[C@@H]2C1=CC(=O)OC1` (stereo in doubt) gave a melting point of 286 to 287 °C.

As for `COCO[C@@H]1[C@H]2OC(C)(C)O[C@H]2[C@H](O[C@H]2C[C@H]3OC(C)(C)OC[C@]34C3C(CC[C@]4(O)C2)[C@@]2(O)CC[C@H](CO)[C@@]2(C)C[C@H]3OCOC)O[C@H]1C` (stereo partly drawn) [Compound 10, (3S,3aR,5R,5bR,9aR,11S,12aS,14bS)-3-(hydroxymethyl)-5-(methoxymethoxy)-11-(((3aR,4R,6S,7S,7aR)-7-(methoxymethoxy)-2,2,6-trimethyltetrahydro-3aH-[1,3]dioxolo[4,5-c]pyran-4-yl)oxy)-3a,8,8-trimethylhexadecahydro-1H-cyclopenta[7,8]phenanthro[4,4a-d][1,3]dioxine-12a,14b-diol], the melting point is 126 to 129 °C. The same measure, in the same setting: the value for `CC(C)[C@H](N)C(=O)O[C@H]1CC[C@@]2(C)C(=CCC3C2CC[C@@]2(C)C3CC[C@@H]2c2cn(Cc3ccccc3)nn2)C1` (stereo partly shown) was 195 to 197 °C; that for `COC(=O)Cn1cc([C@H]2CCC3C4CC=C5C[C@@H](O)CC[C@]5(C)C4CC[C@@]32C)nn1` (stereo partly shown) was 221 to 223 °C. Consider `COCO[C@H]1C[C@H]2OC(C)(C)OC[C@]23C2C(CC[C@]3(O)C1)[C@@]1(OCOC)CC[C@H](C=O)[C@@]1(C)C[C@H]2OCOC` (stereo partly shown), for which the melting point was 129 to 135 °C. Still for that read-out and setting: the value for `COCO[C@@H]1[C@H]2OC(C)(C)O[C@H]2[C@H](O[C@H]2C[C@H]3OC(C)(C)OC[C@]34C3C(CC[C@]4(O)C2)[C@@]2(O)CC[C@H](C#N)[C@@]2(C)C[C@H]3OCOC)O[C@H]1C` (stereo partly drawn) [Compound 11, (3S,3aR,5R,5bR,9aR,11S,12aS,14bS)-12a,14b-dihydroxy-5-(methoxymethoxy)-11-(((3aR,4R,6S,7S,7aR)-7-(methoxymethoxy)-2,2,6-trimethyltetrahydro-3aH-[1,3]dioxolo[4,5-c]pyran-4-yl)oxy)-3a,8,8-trimethylhexadecahydro-1H-cyclopenta[7,8]phenanthro[4,4a-d][1,3]dioxine-3-carbonitrile] was 97 to 99 °C; that for `COCO[C@H]1C[C@H]2OC(C)(C)OC[C@]23C2C(CC[C@]3(O)C1)[C@@]1(OCOC)CC[C@H](CO)[C@@]1(C)C[C@H]2OCOC` (stereo partly drawn) [Compound 22, (3S,3aR,5R,5bR,9aR,11S,12aS,14bS)-3-(hydroxymethyl)-5,11,14b-tris(methoxymethoxy)-3a,8,8-trimethylhexadecahydro-1H-cyclopenta[7,8]phenanthro[4,4a-d][1,3]dioxin-12a-ol] was 154 to 158 °C. The same measure, in the same setting: the value for `COCO[C@@H]1[C@H]2OC(C)(C)O[C@H]2[C@H](O[C@H]2C[C@H]3OC(C)(C)OC[C@]34C3C(CC[C@]4(O)C2)[C@@]2(O)CC[C@H](C(O)CO)[C@@]2(C)C[C@H]3OCOC)O[C@H]1C` (stereo partly drawn) [Compound 3, (3S,3aR,5R,5bR,9aR,11S,12aS,14bS)-3-(1,2-dihydroxyethyl)-5-(methoxymethoxy)-11-(((3aR,4R,6S,7S,7aR)-7-(methoxymethoxy)-2,2,6-trimethyltetrahydro-3aH-[1,3]dioxolo[4,5-c]pyran-4-yl)oxy)-3a,8,8-trimethylhexadecahydro-1H-cyclopenta[7,8]phenanthro[4,4a-d][1,3]dioxine-12a,14b-diol] was 119 to 121 °C.

A further data set has as its system Na,K-ATPase α4 isoform. Particulars: higher than that of the ubiquitous α1 isoform; cited from earlier work.
`C[C@@H]1O[C@@H](O[C@H]2C[C@@H](O)[C@]3(CO)[C@H]4[C@H](O)C[C@]5(C)[C@@H](C6=CC(=O)OC6)CC[C@]5(O)[C@@H]4CC[C@]3(O)C2)[C@H](O)[C@H](O)[C@H]1O` [ouabain]: the “affinity for ouabain of α4 relative to the α1 isoform” value is 10,000 fold.
